# Measurements reported in a melting point compilation (Tetko et al.; mined from patent text by program, amines drawn as free bases though some values may be those of a salt).
row,SMILES,melting point [°C]
1,CC(C)Oc1nc(-n2cccn2)nc(Cl)c1-c1c(F)cc(F)cc1F,106 to 107
2,CNC(=O)N(C)C(=O)Nc1ccccc1,93 to 95
3,O=C(N[C@H](Cc1ccc(C(F)(F)F)o1)[C@@H](O)c1ccc(F)cc1)c1ccc(F)c2ccccc12 (racemic),153 to 154
4,CCCCCCCCCCCCCCCC(=O)Nc1cccc(C(=O)O)c1C,163 to 165
5,Cc1cc(C(C)(C)C)c(O)c(N)c1N,129 to 136
6,COc1cccc(N2CCCN(c3ccnc4sc(C(N)=O)c(N)c34)CC2)c1,193 to 195
7,Cc1cc(C(C)(C)C)c(O)c(S(N)(=O)=O)c1,114 to 116
8,COC(=O)c1ccc(NNC(=O)C(C)C)cc1S(N)(=O)=O,198 to 200
9,Cc1ccccc1-c1nc2ccc(O)cc2o1,134 to 138
10,CC(Cn1ccnc1)Cn1c(=O)c2ccc(Cl)cc2n(C)c1=O (stereo unspecified),206 to 209
11,CC1CCNC(=C2C(=O)CC(C)(C)CC2=O)C1 (stereo unspecified),174
12,COc1ccccc1N1CCN(C2CCN(c3noc4ccccc34)CC2)CC1,71 to 73
13,Oc1ccc(Cn2c(S)nc3ccccc32)cc1,216 to 220
14,CC(C)NC(=O)C(C)(C)C,106 to 108
15,COC(=O)C1CN(C(=O)c2ccccc2-n2cccn2)c2ccc(C)cc2CN1S(=O)(=O)c1ccc(OC)cc1 (stereo unspecified),240 to 242
16,CC1(C)CC(=O)c2c(nc(C3CCCC3)c(C(=O)c3ccc(C(F)(F)F)cc3)c2-c2ccsc2)C1,236 to 238
17,O=c1oc2c(c(=O)n1C1CCCCC1)CCC2,72 to 74
18,CCCCC(=O)N(Cc1cccc(OC)c1)c1cc(F)cc(-c2nnn[nH]2)c1,118 to 120
19,CS(=O)CC(=O)c1ccccc1N (stereo unspecified),99 to 100
20,O=C(O)CCCN1CCN(C2=Nc3ccccc3Cc3ccccc32)CC1,207 to 208
21,Cc1cc(C(O)c2ccccc2)sc1C (stereo unspecified),79 to 80
22,Oc1cccnc1Cc1cccc(Br)c1,160 to 162
23,COC(=O)CCn1cc(C)c(=O)[nH]c1=O,112 to 119
24,CS(=O)(=O)Oc1cc(N)c(F)cc1Cl,79 to 80
25,CC(C)Nc1nc(Cl)nc(Cl)n1,46 to 47
26,CCOc1ccc(C(=O)Nc2c(Cl)cncc2Cl)c2c3ccccc3n(Cc3ccccc3)c12,210 to 213

row,SMILES,melting point [°C]
1,Cc1ccc(N2C(=O)C(O)=C(C(=O)c3ccc(C(C)C)cc3)C2c2ccc(C(C)C)cc2)cn1 (stereo unspecified),252 to 254
2,CCC1C(c2cccnc2Cl)=NOC1(C)O (stereo unspecified),71
3,CC(CN1CCN(c2cccc(C(F)(F)F)c2)CC1)C(O)c1ccc2c(c1)oc(=O)n2C (stereo unspecified),92
4,COC(=O)COc1ccc(-c2ccc3c(c2)c(C)c(-c2ccccc2)n3Cc2ccccc2)cc1,167 to 170
5,CCOP(=O)(CCCCc1ccc2ccccc2c1O)OCC,90 to 91
6,COc1ccc2c(c1)CCN1C(=O)C3=C(CC21)NCCC3 (stereo unspecified),202 to 205
7,CC(C)Cc1ccc(-c2ncccc2S(=O)(=O)Oc2ccc([N+](=O)[O-])cc2)cc1,123 to 124
8,NC(=O)c1c(F)ccc(OCC=CC(=O)O)c1F,187 to 188
9,Nc1nc(N)nc(-c2cccc(-n3cccc3)c2)n1,164 to 170
10,Cc1cc([N+](=O)[O-])c(C(=O)O)cc1F,163 to 165
11,Cc1ccc(C(=O)NC(NC(=O)Nc2cccnc2)C(Cl)(Cl)Cl)cc1 (stereo unspecified),162 to 163
12,CN1C(=O)CCC2(CCC(=O)c3ccccc32)C1=O (stereo unspecified),136 to 138
13,COc1ccc(CNc2nnc(N3CCC(CCO)CC3)c3ccc(Cl)cc23)cc1Cl,153 to 155
14,O=C(CCCN1CCN(c2cc3ccccc3cn2)CC1)c1ccc(F)cc1,148 to 150
15,COC(=O)CC1(OCc2ccccc2)C=CC=C(c2ccccc2)C1 (stereo unspecified),50 to 52
16,CC(=O)Nc1ccc(S(=O)(=O)c2cccc3cnccc23)cc1,240 to 244
17,COC(=O)c1ccc2c(c1)c(=O)[nH]c(=O)n2CCCCN1CCC(OC(c2ccccc2)c2ccccc2)CC1,151 to 153
18,Cc1c(C)c(N2CCN(c3ccc(S(C)(=O)=O)cc3)CC2)c(C)c2c1OC(C)(C)C2,256 to 260
19,CCOC(=O)C(=O)Nc1cccc(-c2nnn[nH]2)c1,192 to 193
20,CC(=O)c1ccc(C(=O)N2Cc3ccnn3Cc3ccccc32)cc1,201 to 210
21,COc1ccccc1[C@H]1CC[C@@H](c2ccccc2)N1C(=O)CNC(=O)Nc1cccc(CC(=O)O)c1 (racemic),140
22,Cn1c(CO)nc2ncccc21,130 to 132
23,CC(=O)c1ccc(-c2ccc(Br)cc2F)cc1,94.5 to 95.5
24,C=CCNc1nc(N)nc2c1ncn2C1C=CC(CO)C1 (stereo unspecified),181 to 183
25,COC(=O)c1c(C)nc(C)c(C(=O)OC)c1-c1ccccc1F,94 to 96
26,CC1(C)CCCC(C)(C)N1Cc1ccc2cc(NC(=O)c3ccc(-c4ccc(F)cc4)cc3)ccc2c1,238 to 241

row,SMILES,melting point [°C]
1,COc1ccc(Cn2c(C)cc3cnnc(Cl)c32)cc1,126 to 128
2,O=C(O)CCSC1c2ccccc2COc2ccc(OCc3ccc4ccc(OC(F)F)cc4n3)cc21 (stereo unspecified),180 to 184
3,CCCc1c(C(=O)C2CC2)c2ccc(C(N)=O)cc2n1Cc1ccccc1Cl,162 to 164
4,CCOC(=O)C1CCN(c2nc(COc3ccc(CCl)cc3OC)c(C)s2)CC1,98 to 99
5,CSCCn1cc(Cl)nc(N2CCc3cc(Cl)cc(Cl)c32)c1=O,127 to 128
6,O=c1c(OCCO)c(-c2ccc(OCc3ccccc3)c(OCc3ccccc3)c2)oc2cc(OCc3ccccc3)ccc12,137
7,CCOC(=O)c1cc2c([nH]1)CN(C(=O)OCC(Cl)(Cl)Cl)CC2,126 to 127
8,CCOC(=O)Cc1c(C)n(Cc2ccc3ccccc3c2)c2ccc(OCc3csc(-c4ccccc4)n3)cc12,118 to 119
9,CC(=O)OC1CC(=O)C2(C)CCC3C(CCC4CC(=O)CC(C)(O)C43C)C12 (stereo unspecified),170
10,CCC(ON=c1c2nccc3cccc(c32)n2cccc12)C(=O)O (stereo unspecified),180
11,Cc1nccn1-c1nc(-c2ccc(Cl)cc2)c(CCC(=O)NCCCl)o1,155 to 156
12,CC12CCC3c4ccc(OCc5ccccc5)c(N)c4CCC3C1CCC2=O (stereo unspecified),219 to 221
13,CCC(=O)c1cc(C2(c3cccc(-c4cccnc4F)c3)N=C(N)N(C)C2=O)cs1 (stereo unspecified),98 to 112
14,COC(=O)CCc1cc2cc(Br)ccc2n1S(=O)(=O)c1ccccc1,109 to 113
15,COc1ccc(OCc2ccccn2)cc1/C=C/c1cc(/C=C/c2c[nH]c3ccccc23)n[nH]1,233 to 238
16,CS(=O)(=O)NC1=CC(NC(=O)CCl)([N+](=O)[O-])CC=C1OC1CCCCC1 (stereo unspecified),208 to 210
17,O=C(CCl)c1ccc(-c2ccc(SC(F)F)cc2)cc1,102 to 104
18,O=C(O)CCCc1ccc(-c2ccc([N+](=O)[O-])cc2)cc1,160 to 161
19,CCCCNC(=O)Nc1ccc(N(CCC)CCC)cc1C(=O)NCC1CCN(C(c2ccccc2)c2ccccc2)CC1,172
20,COc1ccc2c(c1)-c1c(ccn1C[C@@H](C)O)C2,75
21,O=C(O)c1ccccc1C(=O)NCc1ccccn1,140 to 142
22,CN1C(=O)C(C(=O)Nc2ccc(F)cc2)S(=O)(=O)c2cc(Cl)ccc21 (stereo unspecified),205
23,Cc1c(C(=O)OC(C)C)ncc2[nH]c3cccc(Oc4ccc(Cl)cn4)c3c12,243 to 245
24,Oc1nc(S)nc2c(-c3ccccc3)cnn12,251
25,COc1cc(Nc2nc3cccc(-c4ccc(C(=O)N(C)C)cc4)c3o2)cc(OC)c1OC,> 280
26,CCOC(=O)C(C#N)=CNc1ncccc1Cl,140 to 142

row,SMILES,melting point [°C]
1,[N-]=[N+]=Nc1ccnc2c(NC(=O)c3c(Cl)cccc3Cl)cccc12,188 to 193
2,COC(=O)c1cc(-c2ccc(OC)cc2)nn(Cc2ccc([N+](=O)[O-])cc2)c1=O,215 to 217
3,CO/N=C(\C(=O)N[C@@H]1C(=O)N[C@@H]1COC(=O)/C(=N\OC)c1csc(NC(=O)CCl)n1)c1csc(NC(=O)CCl)n1 (relative stereo),157 to 159
4,N#Cc1c(N2CCCN(c3cccc(C(F)(F)F)c3)CC2)cc[nH]c1=S,247 to 248
5,CC1(C)C2C=CC3(C)C(C2)C(=O)CCC13O (stereo unspecified),112 to 115
6,CS(=O)(=O)c1ccc(Oc2cc(OC3CCOCC3)c3[nH]c(C4=NCC(CCO)S4)cc3c2)nc1 (stereo unspecified),165 to 166
7,O=C(NCCO)c1cnc(-c2ccccc2)s1,149 to 152
8,O=C(NC1CCCCC1)c1ccc2nonc2c1,172 to 173
9,O=C1NCCc2c1c1ccccc1n2COCc1ccccc1,133 to 135
10,O=c1ccc(-c2c(-c3ccccc3)nn3ccccc23)nn1CC1(O)CCNCC1,> 260
11,CN1CCN(C2=Nc3ccccc3Nc3cscc32)CC1,200 to 201
12,CC(C)c1ccc(NC(=O)OC(C)(C)C)c(C(=O)O)c1,175
13,O=Cc1ccc(OCc2coc(/C=C/c3ccc(S(=O)C(F)(F)F)cc3)n2)cc1 (stereo unspecified),144 to 147
14,COc1ccc(CCC(=O)c2ccc(O)cc2O)c(OC)c1C,171
15,CC(=O)Cn1cnc2c1c(=O)[nH]c(=O)n2C,< 295
16,O=C(O)c1cc(C(F)(F)F)ccc1Cl,93 to 94
17,O=Cc1cc(S(=O)(=O)n2ccc3ccccc32)ccc1Br,106 to 108
18,NCCC1(O)CCc2ccccc2C12CCCC2 (stereo unspecified),107 to 109
19,COC(=O)c1cc2c(nc1C(=O)OC)SCC2,102 to 104
20,CCc1cccc(C)c1CNc1cc(Cl)nc2c1nc(C)n2C,157 to 159
21,Cc1c(NC(=O)c2ccc(-c3ccc(F)cc3)c(F)c2)ccc2cc(CN3CCCCCC3)cnc12,162 to 163
22,Cc1ncncc1C(=O)Nc1ccc(-n2nc(C(F)(F)F)cc2C2CC2)cc1,163 to 166
23,O=C(CCl)Nc1c(I)cc(I)c(C(=O)O)c1I,253 to 255
